# Measurements published in patent US10538569B2, “Fusion polypeptide containing GLP and immunoglobulin hybrid Fc and use thereof” (GENEXINE, INC., priority 2014, dated 2020).
# Columns and labels:
# [1] = PK profile of GLP-2-2G peptide, GLP-2-hyFc5 and GLP-2-hyFc9, subcutaneous, rats; parameters: species or system Sprague Dawley rats; conditions: in vivo, sc, rat, serum, GLP-2 ELISA kit
# Experimental: In order to confirm the pharmacokinetic profiles (PK profiles) of the GLP-2-hyFc5 and GLP-2-hyFc9 fusion polypeptides prepared above, experiments were performed as follows.
# Male Sprague Dawley rats (3 rats/group) were administered subcutaneously with respective proteins (GLP-2-2G peptide, GLP-2-hyFc5, and GLP-2-hyFc9). Blood samples were collected before the administration and after the administration at 0.08-, 0.16-, 0.5-, 2-, 4-, 8-, 24-, 48-, 96-, 120-, and 168 hours, respectively. The blood samples were stored at room temperature for 30 minutes for agglutination. The samples were centrifuged at 3000 rpm for 10 minutes to obtain serum from each sample and then stored in a deep freezer. The samples were quantitated by dilution to be analyzed in a position on a straight line of standard curve using GLP-2 kit (Millipore, Cat. No. EZGLP2-37K).
# [2] = cited from earlier work
Molecule,half-life [1] [h],in-vivo half-life [2]
"CC[C@H](C)[C@H](NC(=O)[C@H](Cc1ccccc1)NC(=O)[C@H](CC(=O)O)NC(=O)[C@H](CCCNC(=N)N)NC(=O)[C@H](C)NC(=O)[C@H](C)NC(=O)[C@H](CC(C)C)NC(=O)[C@H](CC(N)=O)NC(=O)[C@H](CC(=O)O)NC(=O)[C@H](CC(C)C)NC(=O)[C@@H](NC(=O)[C@@H](NC(=O)[C@H](CC(N)=O)NC(=O)[C@H](CCSC)NC(=O)[C@H](CCC(=O)O)NC(=O)[C@H](CC(=O)O)NC(=O)[C@H](CO)NC(=O)[C@H](Cc1ccccc1)NC(=O)[C@H](CO)NC(=O)CNC(=O)[C@H](CC(=O)O)NC(=O)CNC(=O)[C@@H](N)Cc1c[nH]cn1)[C@@H](C)O)[C@@H](C)CC)C(=O)N[C@@H](CC(N)=O)C(=O)N[C@@H](Cc1c[nH]c2ccccc12)C(=O)N[C@@H](CC(C)C)C(=O)N[C@H](C(=O)N[C@@H](CCC(N)=O)C(=O)N[C@H](C(=O)N[C@@H](CCCCN)C(=O)N[C@H](C(=O)N[C@H](C(=O)N[C@@H](CC(=O)O)C(=O)O)[C@@H](C)O)[C@@H](C)CC)[C@@H](C)O)[C@@H](C)CC [GLP-2-2G, reference compound]",1.2,
glucagon like peptide-2 [GLP-2],,about 7 minutes
